Results: patent US8138350B2, “N′-cyano-N-halogenalkylimidamide derivatives” (Bayer Cropscience AG, priority 2006, dated 2012)

Columns and labels:
Format in all cases: in vivo
[1] = test system: Phaedon cochleariae; test: Phaedon test (spray treatment); settings: 20 g/ha; after 7 d; comparative example
Description: Phaedon Test (Spray Treatment)
To produce a suitable preparation of active compound, 1 part by weight of active compound is mixed with the stated amounts of solvents and emulsifier, and the concentrate is diluted with emulsifier-containing water to the desired concentration.
After the desired period of time, the activity in % is determined. 100% means that all beetle larvae have been killed, 0% means that none of the beetle larvae have been killed.
In this test, for example, the following compounds of the Preparation Examples show an activity of ≧80% at an application rate of 500 g/ha: […]

[2] = test system: Ctenocephalides felis; test: Ctenocephalides felis; oral; settings: 100 ppm in citrated cattle blood, after 2 d, adult fleas, comparative example
Description: Ctenocephalides Felis; Oral
(§1) Solvent: Dimethyl sulphoxide
To produce a suitable preparation of active compound, 1 part by weight of active compound is mixed with the stated amount of […]. Part of the concentrate is diluted with citrated cattle blood, and the desired concentration is prepared.
20 unfed adult fleas (Ctenocephalides felis) are placed into a chamber whose top and bottom ends are closed with gauze. A metal cylinder whose bottom end is closed with parafilm is placed onto the chamber. The cylinder contains the blood/active compound preparation, which can be taken up by the fleas through the parafilm membrane. The blood is warmed to 37° C., but the flea chamber is at room temperature.
After the desired period of time, the kill in % is determined. 100% means that all fleas have been killed; 0% means that none of the fleas have been killed.

[3] = test system: Musca domestica; test: Musca domestica test; settings: 100 ppm; treated sponge; after 2 d; adult flies; comparative example
Description: as §1
To produce a suitable preparation of active compound, 1 part by weight of active compound is mixed with the stated amount of water, and the concentrate is diluted with water to the desired concentration.
Containers containing a sponge treated with the active compound preparation of the desired concentration are populated with adult Musca domestica.
After the desired period of time, the kill in % is determined. 100% means that all flies have been killed; 0% means that none of the flies have been killed.

| SMILES | Phaedon test spray treatment % 7 d [1] | Ctenocephalides felis % 2 d (kill) [2] | Musca domestica % 2 d (kill) [3] |
| --- | --- | --- | --- |
| CC(=NC#N)N(Cc1ccc(Cl)nc1)CC(F)F [I-1, N-[(6-chloropyridin-3-yl)methyl]-N′-cyano-N-(2,2-difluoroethyl)ethanimidamide] | 100% | 70% | 100% |
| CCN(Cc1ccc(Cl)nc1)C(C)=NC#N | 0% | 30% | 0% |
